Target: recombinant full-length FEN-1 (Homo sapiens (Human), UniProt P39748)
Test: Fluorogenic biochemical (enzymatic) assay, FEN-1
Settings: 200 nM DNA flap substrate, 50 mM Tris pH 8.0, 10 mM MgCl2, 2-4 hours at 25° C. or 37° C., read-out: SMD FEN-1 IC50
Procedure: Fluorogenic biochemical assays used recombinant full-length FEN-1 or catalytic domains of Exo1, XPG or GEN1 and 200 nM of a DNA substrate (formed by annealing three oligonucleotides—quencher (5′-CACGTTGACTACCGCTCAATCCTGACGAACACATC-BHQ2), flap (5′-TAMRA-GA TGTCAAGCAGTCCTAACTTTGAGGCAGAGTCCGC) and template (5′-GC GGACTCTGCCTCAAGACGGTAGTCAACGTG-3′) (PMID: 21062821)) in 50 mM Tris pH 8.0, 10 mM MgCl2, 1 mM DTT, and 0.01% Tween-20. Inhibitors arrayed in dose response were added from DMSO stocks (using a V&P 384-pintool head) to the enzyme solution in low volume, black polystyrene 384-well plates (Corning #3677) 15 minutes prior to the addition of the DNA substrate. Reactions were allowed to proceed for 2-4 hours at 25° C. or 37° C. Fluorescence data (Excitation: 530 nm/10 nm bandwidth; Emission: 590 nm/20 nm bandwith) were measured with an Infinite M1000 plate reader (Tecan).

recombinant full-length FEN-1, sequence (P39748 whole entry): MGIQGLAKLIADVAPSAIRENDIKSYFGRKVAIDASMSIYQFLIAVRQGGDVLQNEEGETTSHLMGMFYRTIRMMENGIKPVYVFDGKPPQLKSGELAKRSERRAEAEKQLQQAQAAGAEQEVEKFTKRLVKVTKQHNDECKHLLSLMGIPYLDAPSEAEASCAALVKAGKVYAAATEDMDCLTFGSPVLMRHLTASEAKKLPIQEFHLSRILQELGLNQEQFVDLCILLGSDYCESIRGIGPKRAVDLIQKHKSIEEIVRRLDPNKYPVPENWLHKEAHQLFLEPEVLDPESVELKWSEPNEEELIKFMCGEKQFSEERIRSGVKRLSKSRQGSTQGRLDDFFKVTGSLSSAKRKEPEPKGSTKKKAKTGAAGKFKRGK

SMILES | IC50
O=c1[nH]c2cccc(Cl)c2c(=O)n1O [Compound 11] | 20.8 nM
O=c1[nH]c2ccccc2c(=O)n1O [Compound 12] | 241 nM
O=c1[nH]c2ccncc2c(=O)n1O [Compound 13] | 1310 nM
O=c1[nH]c2ncccc2c(=O)n1O [Compound 14] | 106 nM
O=c1[nH]c2cc(-c3ccccc3)ccc2c(=O)n1O [Compound 15] | 356 nM
O=c1[nH]c2nc(-c3ccccc3)ccc2c(=O)n1O [Compound 16] | 392 nM
Cn1c(=O)n(O)c(=O)c2cccnc21 [Compound 17] | 3340 nM
O=c1[nH]c2c(-c3ccccc3)cccc2c(=O)n1O [Compound 18] | 113 nM
O=c1[nH]c2nc(S(=O)(=O)c3ccccc3)ccc2c(=O)n1O [Compound 19] | 134 nM
O=c1c2cccnc2n(-c2ccccc2)c(=O)n1O [Compound 20] | 2830 nM
O=c1[nH]c2c(S(=O)(=O)c3ccccc3)cccc2c(=O)n1O [Compound 21] | 23.8 nM
O=c1[nH]c2cc(S(=O)(=O)c3ccccc3)ccc2c(=O)n1O [Compound 22] | 79.5 nM
O=c1[nH]c2nc(Cc3ccccc3)ccc2c(=O)n1O [Compound 23] | 11 nM
O=c1[nH]c2c(Cc3ccccc3)cccc2c(=O)n1O [Compound 24] | 53.8 nM
O=c1[nH]c2cc(S(=O)(=O)Cc3ccccc3)cnc2c(=O)n1O [Compound 25] | 1640 nM
O=c1[nH]c2c(-c3ccccc3)ccc(Cl)c2c(=O)n1O [Compound 26] | 37.3 nM
O=c1[nH]c2cc(Cc3ccccc3)ccc2c(=O)n1O [Compound 27] | 97.3 nM
O=c1[nH]c2c(Cc3ccccc3)ccc(Cl)c2c(=O)n1O [Compound 28] | 77.2 nM
O=c1[nH]c2cc(S(=O)(=O)Cc3ccccc3)ccc2c(=O)n1O [Compound 29] | 160 nM
O=c1[nH]c2c(S(=O)(=O)Cc3ccccc3)cccc2c(=O)n1O [Compound 30] | 129 nM
Cc1ccc(S(=O)(=O)c2cccc3c(=O)n(O)c(=O)[nH]c23)cc1 [Compound 31] | 24.2 nM
Cc1cccc(S(=O)(=O)c2cccc3c(=O)n(O)c(=O)[nH]c23)c1 [Compound 32] | 14.5 nM
O=c1[nH]c2c(S(=O)(=O)c3ccc(Cl)cc3)cccc2c(=O)n1O [Compound 33] | 26.1 nM
O=c1[nH]c2c(S(=O)(=O)c3cccc(Cl)c3)cccc2c(=O)n1O [Compound 34] | 26.4 nM

SMILES | IC50
O=c1[nH]c2cccc(Br)c2c(=O)n1O [Compound 35] | 19.6 nM
O=c1[nH]c2c(F)cccc2c(=O)n1O [Compound 36] | 42 nM
O=c1[nH]c2cc(F)ccc2c(=O)n1O [Compound 37] | 171 nM
O=c1[nH]c2ccc(F)cc2c(=O)n1O [Compound 38] | 216 nM
O=c1[nH]c2cccc(F)c2c(=O)n1O [Compound 39] | 54.4 nM
O=c1[nH]c2c(S(=O)(=O)c3ccccc3)cc(F)cc2c(=O)n1O [Compound 40] | 15.6 nM
O=c1[nH]c2c(S(=O)(=O)c3cccc(C(F)(F)F)c3)cccc2c(=O)n1O [Compound 41] | 13.3 nM
COc1cccc(S(=O)(=O)c2cccc3c(=O)n(O)c(=O)[nH]c23)c1 [Compound 42] | 16.5 nM
O=c1[nH]c2c(S(=O)(=O)c3ccccc3)ccc(Cl)c2c(=O)n1O [Compound 43] | 9.9 nM
Cc1cccc(S(=O)(=O)c2cc(Cl)cc3c(=O)n(O)c(=O)[nH]c23)c1 [Compound 44] | 10.9 nM
O=c1[nH]c2c(S(=O)(=O)c3ccc(Br)cc3)cccc2c(=O)n1O [Compound 45] | 14 nM
O=c1[nH]c2c(S(=O)(=O)c3cccc(Br)c3)cccc2c(=O)n1O [Compound 46] | 12.9 nM
O=c1[nH]c2c(S(=O)(=O)c3cccc(O)c3)cccc2c(=O)n1O [Compound 47] | 15.7 nM
Cc1cccc(S(=O)(=O)c2ccc(Cl)c3c(=O)n(O)c(=O)[nH]c23)c1 [Compound 48, 5-chloro-3-hydroxy-8-(m-tolylsulfonyl)quinazoline-2,4(1H,3H)-dione] | 9.3 nM
Nc1cccc(S(=O)(=O)c2cccc3c(=O)n(O)c(=O)[nH]c23)c1 [Compound 49] | 35.4 nM
Cc1cc(C)cc(S(=O)(=O)c2cccc3c(=O)n(O)c(=O)[nH]c23)c1 [Compound 50] | 11.6 nM
Cc1cccc(S(=O)(=O)c2c(F)ccc3c(=O)n(O)c(=O)[nH]c23)c1 [Compound 51] | 19.2 nM
Cc1cccc(S(=O)(=O)c2c(Cl)ccc3c(=O)n(O)c(=O)[nH]c23)c1 [Compound 52] | 139 nM
Cc1cccc(S(=O)(=O)c2cc(F)cc3c(=O)n(O)c(=O)[nH]c23)c1 [Compound 53] | 13.7 nM
O=c1[nH]c2c(S(=O)(=O)c3cc(Cl)cc(Cl)c3)cccc2c(=O)n1O [Compound 54] | 18.1 nM
CC(=O)Nc1cccc(S(=O)(=O)c2cccc3c(=O)n(O)c(=O)[nH]c23)c1 [Compound 55] | 16.5 nM
N#Cc1cccc(S(=O)(=O)c2cccc3c(=O)n(O)c(=O)[nH]c23)c1 [Compound 56] | 14.8 nM
O=c1[nH]c2c(S(=O)(=O)c3cc(F)cc(F)c3)cccc2c(=O)n1O [Compound 57] | 12.8 nM
COC(=O)Nc1cccc(S(=O)(=O)c2cccc3c(=O)n(O)c(=O)[nH]c23)c1 [Compound 58] | 12.8 nM

SMILES | IC50
CNC(=O)Nc1cccc(S(=O)(=O)c2cccc3c(=O)n(O)c(=O)[nH]c23)c1 [Compound 59] | 14.1 nM
O=c1[nH]c2c(S(=O)(=O)c3cccc(Nc4ncccn4)c3)cccc2c(=O)n1O [Compound 60] | 16 nM
O=c1[nH]c2c(S(=O)(=O)c3cc(Br)cc(Br)c3)cccc2c(=O)n1O [Compound 61] | 16.6 nM
O=c1[nH]c2c(S(=O)(=O)c3cccc(Nc4ccccn4)c3)cccc2c(=O)n1O [Compound 62] | 28.9 nM
NC(=O)Nc1cccc(S(=O)(=O)c2cccc3c(=O)n(O)c(=O)[nH]c23)c1 [Compound 63] | 16.9 nM
CN(C)c1cccc(S(=O)(=O)c2cccc3c(=O)n(O)c(=O)[nH]c23)c1 [Compound 64] | 14.9 nM
COc1cc(OC)cc(S(=O)(=O)c2cccc3c(=O)n(O)c(=O)[nH]c23)c1 [Compound 65] | 17 nM
O=c1[nH]c2c(S(=O)(=O)c3cc(O)cc(O)c3)cccc2c(=O)n1O [Compound 66] | 9.3 nM
Cc1cccc(S(=O)(=O)c2ccc(F)c3c(=O)n(O)c(=O)[nH]c23)c1 [Compound 67] | 17.8 nM
O=c1[nH]c2c(S(=O)(=O)c3ccccc3)c(F)ccc2c(=O)n1O [Compound 68] | 94.4 nM
O=c1[nH]c2c(S(=O)(=O)c3cccc(F)c3)cccc2c(=O)n1O [Compound 69] | 10 nM
O=c1[nH]c2c(S(=O)(=O)c3cccc(F)c3)ccc(Cl)c2c(=O)n1O [Compound 70] | 9.8 nM
O=c1[nH]c2c(S(=O)(=O)c3cc(F)cc(F)c3)ccc(Cl)c2c(=O)n1O [Compound 71] | 6.7 nM
O=c1[nH]c2c(S(=O)(=O)c3ccc4[nH]cnc4c3)cccc2c(=O)n1O [Compound 72] | 5.6 nM
CC(=O)Nc1cc(NC(C)=O)cc(S(=O)(=O)c2cccc3c(=O)n(O)c(=O)[nH]c23)c1 [Compound 73] | 7.6 nM
Nc1cc(N)cc(S(=O)(=O)c2cccc3c(=O)n(O)c(=O)[nH]c23)c1 [Compound 74] | 8.5 nM
O=c1[nH]c2c(S(=O)(=O)c3cccs3)cccc2c(=O)n1O [Compound 75] | 11.6 nM
Cc1cc(Cl)cc(S(=O)(=O)c2ccc(Cl)c3c(=O)n(O)c(=O)[nH]c23)c1 [Compound 76] | 9.4 nM
Cc1cc(F)cc(S(=O)(=O)c2ccc(Cl)c3c(=O)n(O)c(=O)[nH]c23)c1 [Compound 77] | 8.5 nM
COc1ccc(S(=O)(=O)c2ccccc2)c2[nH]c(=O)n(O)c(=O)c12 [Compound 78] | 6.6 nM
O=c1[nH]c2c(S(=O)(=O)c3cccs3)ccc(Cl)c2c(=O)n1O [Compound 79] | 16.6 nM
COc1ccc(S(=O)(=O)c2cccc(C)c2)c2[nH]c(=O)n(O)c(=O)c12 [Compound 80] | 9.4 nM
CN(C)c1cc(N(C)C)cc(S(=O)(=O)c2cccc3c(=O)n(O)c(=O)[nH]c23)c1 [Compound 81] | 18.4 nM

From patent US11253521B2, “3-hydroxy-quinazoline-2,4-dione derivatives and their use as nuclease modulators” (Ludwig Institute for Cancer Research Ltd, priority 2015, dated 2022)
